The source of these data is patent US5629324A, “Thrombin inhibitors” (Merck & Co., Inc., priority 1995, dated 1997).

The test deals with T1, human a-thrombin (Homo sapiens, UniProt P00734).
T1 construct: human a-thrombin
Description: Proteinase inhibition, human a-thrombin. The format is biochemical. The conditions noted are these: 25° C., 0.05M TRIS buffer pH 7.4, 0.15M NaCl, 0.1% PEG. The protocol:
Assays of human a-thrombin and bovine trypsin were performed at 25° C. in 0.05M TRIS buffer pH 7.4, 0.15M NaCl, 0.1% PEG. Trypsin assays also contained 1 mM CaCl2.
Concentrations of stock solutions of Z-GPR-afc were determined from measurements of absorbance at 380 nm of the 7-amino-4-trifluoromethyl coumarin produced upon complete hydrolysis of an aliquot of the stock solution by thrombin.
Times required to achieve equilibration between enzyme and inhibitor were determined in control experiments. Initial velocities of product formation in the absence (Vo) or presence of inhibitor (Vi) were measured. Assuming competitive inhibition, and that unity is negligible compared Km /[S], […] (where [S], [I], and e respectively represent the total concentrations, of substrate, inhibitor and enzyme), the equilibrium constant (Ki) for dissociation of the inhibitor from the enzyme can be obtained from the dependence of Vo /Vi on [I] shown in equation 1.

For orientation: Ki means the equilibrium dissociation constant of an inhibitor or competing ligand from its target. A high value points to weaker binding.

`N=C(N)N1CCC(CNC(=O)[C@@H]2CCCN2C(=O)CC(c2ccccc2)c2ccccc2)CC1` showed a Ki of 2.7 nM. As for `N=C(N)N1CCC(CNC(=O)[C@@H]2CCCN2C(=O)C2(O)c3ccccc3-c3ccccc32)CC1`, the affinity, expressed as Ki, was 1.1 nM.
